Measured values as given in US6472348B1, “Pyridone derivatives and herbicides” (Kumiai Chemical Industry Co., Ltd., priority 1996, dated 2002).

Assays:
Type in all cases: in vivo
Design in all cases: scale not given here
wheat (Tr) = assay: Test Example 5: crop plant selectivity by upland field soil treatment (wheat), phytotoxicity; conditions: 21st day after application
In short: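 Pre-emergence soil treatment, sand-filled pots, seeds covered with soil; greenhouse culture; visual scoring of weed control and wheat injury at day 21 post-application.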

slender amaranth (Am) [1] = assay: Test Example 11: crop plant selectivity by upland field foliage treatment (corn), herbicidal effects
In short: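 Corn and the weed species were sown together in sand-filled pots and grown in a greenhouse for 2 weeks before foliar treatment. Herbicidal effect was scored on day 14 after treatment against a graded standard scale, with corn phytotoxicity scored alongside.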

pale smartweed (Po) [2] = assay: Test Example 7: crop plant selectivity by upland field soil treatment (corn), herbicidal effects; conditions: 21st day after application
In short: (§1)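 Sand-filled pot; corn plus weeds sown, soil-covered. Post-application greenhouse culture. Herbicidal effect/phytotoxicity rated day 21 per standard scale.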

[3] = tested on: common lambsquarters (Ch); assay: as above; conditions: 21st day after application
In short: as §1

green foxtail (Se) = assay: as above; conditions: 21st day after application
In short: as §1

China jute (Ab) [4] = assay: as above; conditions: 21st day after application
In short: as §1

slender amaranth (Am) [5] = assay: as above; conditions: 21st day after application
In short: as §1

pale smartweed (Po) [6] = assay: Test Example 9: crop plant selectivity by upland field foliage treatment (wheat), herbicidal effects; conditions: dose 1.6 g ai/10a, 14th day after treatment
In short: (§2)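 Seeds of wheat, pale smartweed, slender amaranth, common lambsquarters and China jute are sown in sand and grown 2 weeks under glass. Foliage is then treated, culture resumes in the greenhouse, and damage is graded on the 14th day.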

[7] = tested on: common lambsquarters (Ch); assay: as above; conditions: dose 1.6 g ai/10a, 14th day after treatment
In short: as §2

China jute (Ab) [8] = assay: as above; conditions: dose 1.6 g ai/10a, 14th day after treatment
In short: as §2

slender amaranth (Am) [9] = assay: as above; conditions: dose 1.6 g ai/10a, 14th day after treatment
In short: as §2

Row | Compound | Phytotoxicity Tr (wheat (Tr); dose 1.6 g ai/10a) | Herbicidal effects Am (slender amaranth (Am) [1]; slender amaranth, foliage treatment, dose 1.6 g ai/10a, evaluated on 14th day after treatment, index per Table 47) | Herbicidal effects Po (pale smartweed (Po) [2]; dose 1.6 g ai/10a) | Herbicidal effects Ch ([3]; dose 1.6 g ai/10a) | Herbicidal effects Se (green foxtail (Se); dose 1.6 g ai/10a) | Herbicidal effects Ab (China jute (Ab) [4]; dose 1.6 g ai/10a) | Herbicidal effects Am (slender amaranth (Am) [5]; dose 1.6 g ai/10a) | Herbicidal effects Po (pale smartweed (Po) [2]; dose 6.3 g ai/10a) | Herbicidal effects Ch ([3]; dose 6.3 g ai/10a) | Herbicidal effects Se (green foxtail (Se); dose 6.3 g ai/10a) | Herbicidal effects Ab (China jute (Ab) [4]; dose 6.3 g ai/10a) | Herbicidal effects Am (slender amaranth (Am) [5]; dose 6.3 g ai/10a) | Herbicidal effects Po (pale smartweed (Po) [6]) | Herbicidal effects Ch [7] | Herbicidal effects Ab (China jute (Ab) [8]) | Herbicidal effects Am (slender amaranth (Am) [9]) | Phytotoxicity Tr (wheat (Tr); dose 6.3 g ai/10a) | Herbicidal effects Am (slender amaranth (Am) [1]; upland field foliage treatment (corn test), dose 0.1 g ai/10a, 14th day after treatment)
1 | C#CC(C)Oc1cc(-c2cn(C)c(C(F)(F)F)cc2=O)c(F)cc1Cl (racemic) [Compound 6-10] | 0 | 5 | – | – | – | – | – | – | – | – | – | – | – | – | – | – | – | –
2 | COc1cc(-c2ccc(C(F)(F)F)n(C)c2=O)c(F)cc1Cl [1-15] | 2 | – | 5 | 5 | 5 | 5 | 5 | – | – | – | – | – | – | – | – | – | – | –
3 | C#CC(C)Oc1cc(-c2ccc(C(F)(F)F)n(C)c2=O)c(F)cc1Cl (stereo not drawn) [1-17] | 1 | – | 5 | 5 | 5 | 5 | 5 | 5 | 5 | 5 | 4 | 5 | – | – | – | – | – | –
4 | CC(C)Sc1cc(-c2ccc(C(F)(F)F)n(C)c2=O)c(F)cc1Cl [1-43] | – | – | – | – | – | – | – | 5 | 5 | 5 | 4 | 5 | 5 | 5 | 5 | 5 | 1 | –
5 | C#CCSc1cc(-c2ccc(C(F)(F)F)n(C)c2=O)c(F)cc1Cl [1-44] | – | – | – | – | – | – | – | 5 | 5 | 5 | 5 | 5 | 5 | 5 | 5 | 5 | 1 | –
6 | Cc1cc(-c2ccc(C(F)(F)F)n(C)c2=O)c(F)cc1Cl [1-90] | – | – | 5 | 5 | 5 | 5 | 5 | 5 | 5 | 5 | 5 | 5 | – | – | – | – | 1 | –
7 | COCSc1cc(-c2ccc(C(F)(F)F)n(C)c2=O)c(F)cc1Cl [1-91] | 1 | – | 5 | 5 | 5 | 5 | 5 | 5 | 5 | 5 | 5 | 5 | 5 | 5 | 5 | 5 | – | –
8 | Cn1c(C(F)(F)F)ccc(-c2cc(OCC(F)(F)F)c(Cl)cc2F)c1=O [1-155] | 1 | – | 5 | 5 | 5 | 5 | 5 | 5 | 5 | 5 | 5 | 5 | – | – | – | – | 2 | –
9 | Cn1c(C(F)(F)F)ccc(-c2cc(OCC3CC3)c(Cl)cc2F)c1=O [1-160] | – | – | – | – | – | – | – | 5 | 5 | 5 | 5 | 5 | 5 | 5 | 5 | 5 | 2 | –
10 | C#CC(O)c1cc(-c2ccc(C(F)(F)F)n(C)c2=O)c(F)cc1Cl (stereo not drawn) [Compound 1-202] | 1 | – | 5 | 5 | 5 | 5 | 5 | – | – | – | – | – | 5 | 5 | 5 | 5 | – | –
11 | C=CCN1C(=O)COc2cc(F)c(-c3ccc(C(F)(F)F)n(C)c3=O)cc21 [Compound 2-7] | 0 | – | – | – | – | – | – | – | – | – | – | – | – | – | – | – | – | –
12 | Cc1cc2c(-c3ccc(C(F)(F)F)n(C)c3=O)c(F)cc(Cl)c2o1 [Compound 4-1] | 1 | – | 5 | 5 | 5 | 5 | 5 | 5 | 5 | 5 | 5 | 5 | 5 | 5 | 5 | 5 | 2 | –
13 | CCc1cc2c(-c3ccc(C(F)(F)F)n(C)c3=O)c(F)cc(Cl)c2o1 [Compound 4-2] | 1 | – | 5 | 5 | 5 | 5 | 5 | 5 | 5 | 5 | 5 | 5 | 5 | 5 | 5 | 5 | – | –
14 | C#CCN1C(=O)COc2cc(F)c(-c3ccc(C(F)(F)F)n(C)c3=O)cc21 [Compound No. 2-1, 3-[7-fluoro-2,3-dihydro-4-(2-propynyl)-1,4-benzoxazin-3-on-6-yl]-1-methyl-6-trifluoromethyl-2(1H)-pyridone] | 0 | – | – | – | – | – | – | – | – | – | – | – | – | – | – | – | – | 5
15 | C#CCn1c(=O)sc2cc(F)c(-c3ccc(C(F)(F)F)n(C)c3=O)cc21 [Compound No. 3-1, 3-[6-fluoro-3-(2-propynyl)-benzothiazolin-2-on-5-yl]-1-methyl-6-trifluoromethyl-2(1H)-pyridone] | – | – | 5 | 5 | 5 | 5 | 5 | 5 | 5 | 5 | 5 | 5 | – | – | – | – | 1 | –
16 | Cn1cc(-c2cc(Oc3ccccc3)c(Cl)cc2F)c(=O)cc1C(F)(F)F [Compound No. 6-19, 5-(4-chloro-2-fluoro-5-phenoxyphenyl)-1-methyl-2-trifluoromethyl-4(1H)-pyridone] | 0 | – | – | – | – | – | – | – | – | – | – | – | – | – | – | – | 0 | –
